Results reported in patent US20170014354A1, “ZEAXANTHIN FOR TUMOR TREATMENT” (The New York Eye and Ear Infirmary, priority 2012, published 2017).

Columns and labels:
Type in all cases: cell-based
OS143 = assay: MTT cell viability, OS143 osteosarcoma; details: 48 h, vs control
Method: (§1) Each malignant tumor cell line was cultured in Dulbecco's modified Eagle's medium (DMEM, GIBCO, Carlsbad, Calif.) supplemented with 10% fetal bovine serum (FBS, GIBCO). Cells were incubated in a humidified 5% CO2 atmosphere at 37° C. After reaching confluence, cells were detached by trypsin-EDTA solution (GIBCO), diluted 1:4-1:6, plated for subculture and were passaged routinely at a dilution of 1:4-1:6 every 4-6 days.
(§2) All cell lines were tested in triplicates.

SP6.5 = assay: Phase-contrast microscopy of treated uveal melanoma cells; details: SP6.5, 0, 30 and 100 μM zeaxanthin, 48 hr, 24-well plates
Method: FIGS. 2A, 2B and 2C illustrate the phase-contrast photomicrographs of uveal melanoma cells which have been treated with three different concentrations of zeaxanthin. Uveal melanoma cells (SP6.5 cell line) were seeded into 24-well plates and treated with zeaxanthin at 0 μM (2A), 30 μM (2B), and 100 μM (2C) levels for 48 hr.
Viability of cells treated with zeaxanthin was also visualized in the following tests. In these tests, the same amount of uveal melanoma cells were cultured and treated with zeaxanthin at different concentrations, and the treated cells were examined under microscope. Specifically, the uveal melanoma cell line SP6.5 was seeded into 24-well plates and treated with zeaxanthin at final concentrations of 0 μM, 30 μM, and 100 μM for 48 hr. […] The number of cells alive in FIG. 2A is more than that in FIG. 2B, which in turn is more than that in FIG. 2C.

HCT-15 = assay: MTT cell viability, HCT-15 colon cancer; details: 48 h, vs control
Method: as §1, §2

T-47D = assay: MTT cell viability, T-47D breast cancer; details: 48 h, vs control
Method: as §1, §2

LoVo = assay: MTT cell viability, LoVo colon cancer; details: 48 h, vs control
Method: as §1, §2

MDA = assay: MTT cell viability, MDA breast cancer; details: for Cell viability: 48 h, MTT, vs control
Method: as §1, §2

NCI-H358 = assay: MTT cell viability, NCI-H358 lung cancer; details: 48 h, vs control
Method: as §1, §2

NCI-H820 = assay: MTT cell viability, NCI-H820 lung cancer; details: 48 h, vs control
Method: as §1, §2

PC-3 = assay: MTT cell viability, PC-3 prostate cancer; details: 48 h, vs control
Method: as §1, §2

HeLa = assay: MTT cell viability, HeLa cervix cancer; details: 48 h, vs control
Method: as §1, §2

SCC1 = assay: MTT cell viability, SCC1 cutaneous squamous carcinoma; details: 48 h, vs control
Method: as §1, §2

DU-145 = assay: MTT cell viability, DU-145 prostate cancer; details: 48 h, vs control
Method: as §1, §2

CC1=C(/C=C/C(C)=C/C=C/C(C)=C/C=C/C=C(C)/C=C/C=C(C)/C=C/C2=C(C)C[C@@H](O)CC2(C)C)C(C)(C)C[C@H](O)C1 [zeaxanthin]
Cell viability (OS143; OS143, 10 μM zeaxanthin): 82 ± 5.0%
Cell viability (OS143; OS143, 30 μM zeaxanthin): 78 ± 3.4%
Cell viability (OS143; OS143, 100 μM zeaxanthin): 42 ± 1.3%
number of cells seen under microscope (SP6.5): the number of cells in the culture that could be seen under microscope decreased progressively
Cell viability (HCT-15; HCT-15, 10 μM zeaxanthin): 62 ± 3.4%
Cell viability (HCT-15; HCT-15, 30 μM zeaxanthin): 46 ± 2.4%
Cell viability (HCT-15; HCT-15, 100 μM zeaxanthin): 12 ± 1.3%
Cell viability (T-47D; 10 μM zeaxanthin): 83 ± 4.2%
Cell viability (T-47D; 30 μM zeaxanthin): 57 ± 3.5%
Cell viability (T-47D; 100 μM zeaxanthin): 31 ± 1.4%
Cell viability (LoVo; 10 μM zeaxanthin): 76 ± 3.8%
Cell viability (LoVo; 30 μM zeaxanthin): 51 ± 2.5%
Cell viability (LoVo; 100 μM zeaxanthin): 32 ± 1.6%
Cell viability (MDA; 10 μM zeaxanthin): 97 ± 6.36%
Cell viability (MDA; 30 μM zeaxanthin): 95 ± 5.1%
Cell viability (MDA; 100 μM zeaxanthin): 92 ± 9.2%
decrease of cell viability after zeaxanthin treatment (MDA; final concentration as high as 100 μM): did not see statistically significant decrease of cell viability
Cell viability (NCI-H358; NCI-H358, 10 μM zeaxanthin): 80 ± 3.5%
Cell viability (NCI-H358; NCI-H358, 30 μM zeaxanthin): 65 ± 3.0%
Cell viability (NCI-H358; NCI-H358, 100 μM zeaxanthin): 37 ± 1.3%
Cell viability (NCI-H820; NCI-H820, 10 μM zeaxanthin): 76 ± 4.5%
Cell viability (NCI-H820; NCI-H820, 30 μM zeaxanthin): 68 ± 3.1%
Cell viability (NCI-H820; NCI-H820, 100 μM zeaxanthin): 38 ± 1.7%
Cell viability (PC-3; PC-3, 10 μM zeaxanthin): 74 ± 4.4%
Cell viability (PC-3; PC-3, 30 μM zeaxanthin): 62 ± 3.2%
Cell viability (PC-3; PC-3, 100 μM zeaxanthin): 39 ± 2.6%
Cell viability (HeLa; 10 μM zeaxanthin): 66 ± 3.3%
Cell viability (HeLa; 30 μM zeaxanthin): 46 ± 1.6%
Cell viability (HeLa; 100 μM zeaxanthin): 7.9 ± 2.0%
Cell viability (SCC1; SCC1, 10 μM zeaxanthin): 80 ± 3.5%
Cell viability (SCC1; SCC1, 30 μM zeaxanthin): 65 ± 2.9%
Cell viability (SCC1; SCC1, 100 μM zeaxanthin): 13 ± 1.4%
Cell viability (DU-145; DU-145, 10 μM zeaxanthin): 78 ± 5.0%
Cell viability (DU-145; DU-145, 30 μM zeaxanthin): 65 ± 5.5%
